Reference: patent US12344618B2, “Heterotricyclic derivative compound and use of same” (HANMI PHARMACEUTICAL CO., LTD., priority 2019, dated 2025)
Read-outs that look alike come from different tables or passages of the source.

Columns and labels:
[1] = Metabolic stability in dog liver microsomes; format: in vitro ADME; settings: 5 μM compound, 1 mg/mL dog liver microsomes, 37° C., NADPH regenerating system
Protocol: (§1) In order to confirm the metabolic stability of the synthetic compounds in the liver, 5 μM test compound and 1 mg/mL human, dog, rat or mouse liver microsomes were allowed to react with each other at 37° C. in the presence of the NADPH regenerating system for 1 hour. After 1 hour, the reaction was terminated and the supernatant obtained by centrifugation was analyzed by HPLC. With the peak value obtained as the analysis result, the residual amount (%) was calculated using the following equation through the peak value of the test compound after 1 hour of the reaction versus the peak value of the test compound at 0 min. Residual amount (%)=(peak value of test compound after 1 hour of reaction/peak value of test compound at 0 min)×100

[2] = test system: KMS-11; assay: Cell growth inhibition test, KMS-11; format: cell-based; settings: Homo sapiens, 240 h; KMS-11, culture time 10 days; read-out: Cell growth inhibitory activity (GI50, nM) KMS-11
Protocol: (§2) In order to confirm the inhibitory effects of the synthetic compounds against the growth of blood cancer cell lines, evaluation was performed against KARPAS 422, RPMI 8226, KMS-11, JeKo-1, MV-4-11, Mino, Pfeiffer, SU-DHL-4, and RS4; 11 cell lines. A test for the Pfeiffer and SU-DHL-4 cell lines was performed by KYinno Co., Ltd., a test for the RS4; 11 cell line was performed by Shanghai Chempartner Co., Ltd., and a test for the Kasumi-1, MV-4-11, MM.1S, KMS-11, JeKo-1, Mino (ATCC), RPMI 8226 (KCLB), and KARPAS 422 (ECACC) cell lines was performed after purchase.
(§3) DMSO at a final concentration of 0.1% or less or a DMSO solution of each of the synthetic compounds was added to media to have the concentration and treatment time described in Table 5 below, and cells were cultured at 37° C. under 5% CO2. Each type of the cultured cells was seeded in 6-well plates or 48-96 well plates, and subculture or medium replacement was performed every 3 to 4 days. Next, the cells were subcultured for a total of 7 to 14 days, and then seeded in 96-well plates. 3 to 5 days before the measurement of the effect, the cells were seeded in 96-well plates, and then the absorbance (Tz) on the day of seeding was measured. The absorbance after the reaction was measured by the plate reader device Synergy NeoAlpha (Biotek) using Cell-Titer-Glo Cell Viability Assay (Promega, G7573) according to the attached manual. Based on the absorbance (Tz) measured on the seeding day and the absorbance of each of the DMSO-treated group (C) and the sample-added group (Ti) measured on the day of effect determination, the percentage of cell proliferation inhibition was calculated according to the following Equation 1. [(Ti−Tz)/(C−Tz)]×100 for concentrations for which Ti≥Tz […] for concentrations for which Ti<Tz. [Equation 1]

[3] = test system: Pfeiffer (EZH2 A677G mutation); assay: Cell growth inhibition test, Pfeiffer; format: cell-based; settings: Homo sapiens, read-out: Cell growth inhibitory activity (GI50, nM) Pfeiffer (EZH2 A677G mutation)
Protocol: as §3, with “Each” for “DMSO at a final concentration of 0.1% or less or a DMSO solution of each of the synthetic compounds was added to media to have the concentration and treatment time described in Table 5 below, and cells were cultured at 37° C. under 5% CO2. Each”

[4] = Mouse pharmacokinetics, oral single dose; format: in vivo; settings: male, ICR, mouse, plasma, po, 30 mg/kg, mice (ICR, male), oral single dose 30 mg/kg; for AUC: read-out: Area under oral curve (AUC); for half-life: read-out: Half life T1/2 (converted)
Protocol: Pharmacokinetics of the synthetic compounds as EZH2 inhibitors in mice (ICR, 8-week-old, male) were tested.
The oral administration group was maintained in a fasting state from the day before the test to 4 hours after administration of the test compound. On the day of administration of the test compound, the weight of each animal was measured and each synthetic compound was formulated using a selected solvent based on 30 mg/kg (10 mL/kg). Each test compound was administered orally in a single dose, a certain amount of the blood was taken at a predetermined time, plasma was isolated therefrom, and the concentration of each test compound in the plasma was analyzed using LC-MS/MS (Waters UPLC H-Class/Xevo TQ; Waters, USA). Pharmacokinetic coefficients were calculated by a linear-log trapezoidal summation formula using a non-compartment analysis of the Phoenix™ WinNonlin (Certara, USA) program through the plasma concentration curve over time.

[5] = Metabolic stability in mouse liver microsomes; format: in vitro ADME; settings: 5 μM compound, 1 mg/mL mouse liver microsomes, 37° C., NADPH regenerating system
Protocol: as §1

[6] = test system: Mino; assay: Cell growth inhibition test, Mino; format: cell-based; settings: Homo sapiens, 336 h, culture time 14 days, read-out: Cell growth inhibitory activity (GI50, nM) Mino
Protocol: as §2, §3

[7] = test system: SU-DHL-4; assay: Cell growth inhibition test, SU-DHL-4; format: cell-based; settings: Homo sapiens, read-out: Cell growth inhibitory activity (GI50, nM) SU-DHL-4
Protocol: as §2, §3

[8] = Metabolic stability in rat liver microsomes; format: in vitro ADME; settings: 5 μM compound, 1 mg/mL rat liver microsomes, 37° C., NADPH regenerating system
Protocol: as §1

[9] = test system: RS4;11; assay: Cell growth inhibition test, RS4;11; format: cell-based; settings: Homo sapiens, read-out: Cell growth inhibitory activity (GI50, nM) RS4;11
Protocol: as §2, §3

[10] = test system: RPMI8226; assay: Cell growth inhibition test, RPMI8226; format: cell-based; settings: Homo sapiens, RPMI-8226, 168 h; RPMI8226, culture time 7 days; read-out: Cell growth inhibitory activity (GI50, nM) RPMI8226
Protocol: as §2, §3

[11] = test system: Kasumi-1; assay: Cell growth inhibition test, Kasumi-1; format: cell-based; settings: Homo sapiens, 240 h; Kasumi-1, culture time 10 days; read-out: Cell growth inhibitory activity (GI50, nM) Kasumi-1
Protocol: as §2, §3

[12] = Metabolic stability in human liver microsomes; format: in vitro ADME; settings: 5 μM compound, 1 mg/mL human liver microsomes, 37° C., NADPH regenerating system
Protocol: as §1

[13] = test system: MM.1S; assay: Cell growth inhibition test, MM.1S; format: cell-based; settings: Homo sapiens, MM1.S, 264 h, culture time 11 days, read-out: Cell growth inhibitory activity (GI50, nM) MM.1S
Protocol: as §2, §3

[14] = test system: MV4-11; assay: Cell growth inhibition test, MV4-11; format: cell-based; settings: Homo sapiens, 240 h; MV4-11, culture time 10 days; read-out: Cell growth inhibitory activity (GI50, nM) MV4-11
Protocol: as §2, §3

[15] = test system: KARPAS-422 (EZH2 Y641N mutation); assay: Cell growth inhibition test, KARPAS-422; format: cell-based; settings: KARPAS-422, culture time 7 days, read-out: Cell growth inhibitory activity (GI50, nM) KARPAS-422 (EZH2 Y641N mutation)
[16] = test system: JeKo-1; assay: Cell growth inhibition test, JeKo-1; format: cell-based; settings: Homo sapiens, 240 h; JeKo-1, culture time 10 days; read-out: Cell growth inhibitory activity (GI50, nM) JeKo-1
Protocol: as §2, §3

For Cc1cc(C)c(CN2CCc3c(Br)c4c(c(C)c3C2=O)OC(C)([C@H]2CC[C@H](N(C)C)CC2)O4)c(=O)[nH]1 (single isomer, unassigned) [Compound 49, 9-bromo-6-((4,6-dimethyl-2-oxo-1,2-dihydropyridin-3-yl)methyl)-2-(trans-4-(dimethylamino)cyclohexyl)-2,4-dimethyl-7,8-dihydro-[1,3]dioxolo[4,5-g]isoquinolin-5(6H)-one], the “Residual amount (%) of test compound after 1 hour of reaction, Dog” value (“Residual amount (%) of test compound … Dog” for short) [1] was 74%, the GI50 [2] was 8.1 nM and the GI50 [3] was 0.21 nM. The AUC [4] was 9960 ng·h/mL, the half-life [4] was 2.9 h and the “Residual amount (%) of test compound after 1 hour of reaction, Mouse” value [5] was 52%. For the same compound, the GI50 [6] was 2 nM, the GI50 [7] was 11 nM and the “Residual amount (%) of test compound after 1 hour of reaction, Rat” value [8] was 84%. The GI50 [9] was 24 nM, the GI50 [10] was 6.4 nM and the GI50 [11] was 51 nM. The “Residual amount (%) of test compound after 1 hour of reaction, Human” value [12] was 67%, the GI50 [13] was 1.4 nM and the GI50 [14] was 3.9 nM. It also gave a GI50 [15] of 1.2 to 9.7 nM and a GI50 [16] of 42 nM.

In the case of CCN(c1cc(-c2ccc(CN3CCOCC3)cc2)cc(C(=O)NCc2c(C)cc(C)[nH]c2=O)c1C)C1CCOCC1 [Control A, N-((4,6-dimethyl-2-oxo-1,2-dihydropyridin-3-yl)methyl)-5-(ethyl(tetrahydro-2H-pyran-4-yl)amino)-4-methyl-4′-(morpholinomethyl)-[1,1′-biphenyl]-3-carboxamide], the “Residual amount (%) of test compound … Dog” value [1] was 14%, the GI50 [2] was 554 nM and the AUC [4] was 4880 ng·h/mL. For the same compound, the half-life [4] was 0.6 h, the GI50 [6] was 225 nM and the GI50 [7] was 281 nM. The GI50 [9] was 932 nM, the GI50 [10] was 315 nM and the GI50 [11] was greater than 1000 nM. The GI50 [13] was 204 nM, the GI50 [14] was 220 nM and the GI50 [16] was 3580 nM.

For Cc1cc(C)c(CNC(=O)c2cc(Cl)c3c(c2C)O[C@@](C)([C@H]2CC[C@H](N(C)C)CC2)O3)c(=O)[nH]1 [Control B], the “Residual amount (%) of test compound … Dog” value [1] was 83%, the GI50 [2] was 25 nM and the GI50 [3] was 0.57 nM. The AUC [4] was 3420 to 5000 ng·h/mL, the half-life [4] was 1 h and the “Residual amount (%) of test compound after 1 hour of reaction, Mouse” value [5] was 50%. The GI50 [6] was 2.5 nM, the GI50 [7] was 21 nM and the “Residual amount (%) of test compound after 1 hour of reaction, Rat” value [8] was 81%. For the same compound, the GI50 [9] was 62 nM, the GI50 [10] was 7.8 nM and the GI50 [11] was 324 nM. The “Residual amount (%) of test compound after 1 hour of reaction, Human” value [12] was 65%, the GI50 [13] was 2.3 nM and the GI50 [14] was 6.1 nM. It also gave a GI50 ([15]; Homo sapiens, KARPAS-422, 168 h) of 1.3 to 15 nM and a GI50 [16] of 71 nM.
